Results reported in patent US20240398812A1 (Caraway Therapeutics, Inc., priority 2021, published 2024).

Legend:
Assay type in all cases: cell-based
Conditions in all cases: Table 3, compounds 201-283
human TRPML1 = human TRPML1 (Homo sapiens, UniProt Q9GZU1); assay: Fluorescent TRPML1 assay (Fluo4-AM calcium fluorescence, HEK-293 Trex cells)
Summary of the method: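 Tet-inducible HEK-293 Trex cells stably expressing surface-targeted mutant human TRPML1, induced with 0.5 ug/mL doxycycline overnight, loaded with Fluo4-AM and suspended in Ringer's with 10 mM calcium. Compounds tested from 20 μM to 6 nM final, half-log steps, in triplicate; fluorescence (ex 480/em 540) normalised to plate controls, EC50 by non-linear regression.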

TRPML2 = biological target: T1, TRPML2 (Homo sapiens, UniProt Q8IZK6); assay: Fluorescent TRPML2 assay (as for TRPML1)
T1 construct: expressed in transfected cells
T1 sequence (Q8IZK6 1-566): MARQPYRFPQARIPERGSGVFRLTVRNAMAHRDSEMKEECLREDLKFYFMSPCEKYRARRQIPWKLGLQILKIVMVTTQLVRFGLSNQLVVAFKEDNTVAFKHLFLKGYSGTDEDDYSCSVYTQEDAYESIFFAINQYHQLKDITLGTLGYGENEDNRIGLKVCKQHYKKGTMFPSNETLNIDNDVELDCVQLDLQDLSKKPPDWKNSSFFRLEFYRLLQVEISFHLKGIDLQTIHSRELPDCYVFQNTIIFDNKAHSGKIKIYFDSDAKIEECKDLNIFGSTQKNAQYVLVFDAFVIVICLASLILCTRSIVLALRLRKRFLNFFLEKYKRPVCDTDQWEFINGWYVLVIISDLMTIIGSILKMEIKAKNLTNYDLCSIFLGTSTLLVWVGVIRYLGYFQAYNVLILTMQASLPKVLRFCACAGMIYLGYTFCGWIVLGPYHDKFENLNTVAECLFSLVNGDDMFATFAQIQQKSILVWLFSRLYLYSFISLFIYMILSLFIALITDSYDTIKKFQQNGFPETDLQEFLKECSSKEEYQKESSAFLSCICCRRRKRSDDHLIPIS
Protocol: HEK-293 Trex cells were stably transfected with a construct consisting of the human coding sequence for TRPML1 cloned into the tet-inducible plasmid pCDNA5 T/O. Mutations were introduced into the TRPML1 sequence to facilitate expression on the cell surface (Silvia Vergarajauregui, Rosa Puertollano Traffic. 2006 March; 7 (3): 337-353). Briefly, the cells are cultured in 150 mm round tissue culture dishes containing 20 mL of media. The day before the assay the cells are rinsed with DPBS —Ca—Mg and then treated briefly with Trypsin-EDTA. The Trypsin-EDTA is diluted with growth media, and cells are counted. 38×10^6 cells are re-plated into 150 mm round tissue culture dishes in media containing 0.5 ug/mL doxycycline to induce expression of hTRPML1.
The day of the experiment cells are lifted from the plates as above and collected by centrifugation. The cells are then suspended in dye loading buffer consisting of Ringer's solution supplemented with 0.1% Pluronic Acid and 1 micromolar Fluo4-AM dye. Cells are loaded for ˜60 minutes in the dark with occasional mixing. The cells are collected by centrifugation, the loading media aspirated, and the cells resuspended in 25 mL Ringer's solution and incubated ˜60 minutes in the dark. The cells are again collected by centrifugation, rinsed in Ringer's Solution and resuspended to 0.2×10^6 cells/mL in modified Ringer's solution containing 10 mM calcium.
Compounds are dissolved to a concentration of 10 millimolar with DMSO. Compound plates are created by dispensing compounds into 384 well black wall clear bottom plates (Greiner 781091). Positive and negative controls are included on each plate. Typically, different amounts of each compound are tested ranging from 100 nanoMoles (20 micromolar final concentration) decreasing in half-log steps to 31 picoMoles (6 nanomolar final concentration). Each concentration is typically tested in triplicate.
50 microliters of dye-loaded cells are dispensed into each well of the compound assay plate created above. The fluorescence in each well is then determined with an excitation wavelength of 480 nm and an emission wavelength of 540 nm using either a Molecular Devices SpectraMax multimode plate reader or a Hamamatsu FDSS/uCell plate imager.
The resulting fluorescence for each well is exported as an ascii file and loaded into our LIMS for analysis. The percent activity of each compound at each concentration is determined by comparison to the positive and negative control wells included in each plate.
Assays for TRPML2 and TRPML3 were performed as above for TRPML1, by substituting the appropriate TRPML2 or TRPML3 subtype for the TRPML1.
EC50 values were calculated using a non-linear regression of Prism. In the table, “A” indicates an EC50 of less than 100 nM, “B” indicates an EC50 range from 100 nM to 500 nM; “C” indicates an EC50 range from 500 nM to 2 μM; and “D” indicates an EC50 greater than 2 μM.

TRPML3 = biological target: T2, TRPML3 (Homo sapiens, UniProt Q8TDD5); assay: Fluorescent TRPML3 assay (as for TRPML1)
T2 construct: expressed in transfected cells
T2 sequence (Q8TDD5 1-553): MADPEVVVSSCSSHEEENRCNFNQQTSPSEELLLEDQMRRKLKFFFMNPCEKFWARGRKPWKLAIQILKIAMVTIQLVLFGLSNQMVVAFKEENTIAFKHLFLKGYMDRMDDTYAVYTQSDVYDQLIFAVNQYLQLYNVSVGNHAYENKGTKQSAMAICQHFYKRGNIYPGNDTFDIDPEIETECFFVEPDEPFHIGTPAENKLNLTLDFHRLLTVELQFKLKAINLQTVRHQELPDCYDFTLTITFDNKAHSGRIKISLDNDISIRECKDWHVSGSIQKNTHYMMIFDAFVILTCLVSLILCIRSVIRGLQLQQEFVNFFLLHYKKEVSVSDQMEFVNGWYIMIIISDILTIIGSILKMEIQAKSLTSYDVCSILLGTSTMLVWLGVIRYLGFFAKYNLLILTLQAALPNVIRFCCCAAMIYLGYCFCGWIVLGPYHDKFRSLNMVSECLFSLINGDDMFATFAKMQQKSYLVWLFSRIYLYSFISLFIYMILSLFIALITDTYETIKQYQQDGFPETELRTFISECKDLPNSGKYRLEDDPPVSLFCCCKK
Summary of the method: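 HEK-293 Trex cells with tet-inducible (0.5 ug/mL doxycycline, overnight) surface-targeted mutant channel, Fluo4-AM loaded, suspended in Ringer's with 10 mM calcium. Compounds tested 20 µM to 6 nM final, half-log steps, triplicate; fluorescence at ex 480/em 540 nm. EC50 by non-linear regression of percent activity versus plate controls.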

Chain of human TRPML1 (Q9GZU1 whole entry L15A/L16A/L577A/L578A, form open): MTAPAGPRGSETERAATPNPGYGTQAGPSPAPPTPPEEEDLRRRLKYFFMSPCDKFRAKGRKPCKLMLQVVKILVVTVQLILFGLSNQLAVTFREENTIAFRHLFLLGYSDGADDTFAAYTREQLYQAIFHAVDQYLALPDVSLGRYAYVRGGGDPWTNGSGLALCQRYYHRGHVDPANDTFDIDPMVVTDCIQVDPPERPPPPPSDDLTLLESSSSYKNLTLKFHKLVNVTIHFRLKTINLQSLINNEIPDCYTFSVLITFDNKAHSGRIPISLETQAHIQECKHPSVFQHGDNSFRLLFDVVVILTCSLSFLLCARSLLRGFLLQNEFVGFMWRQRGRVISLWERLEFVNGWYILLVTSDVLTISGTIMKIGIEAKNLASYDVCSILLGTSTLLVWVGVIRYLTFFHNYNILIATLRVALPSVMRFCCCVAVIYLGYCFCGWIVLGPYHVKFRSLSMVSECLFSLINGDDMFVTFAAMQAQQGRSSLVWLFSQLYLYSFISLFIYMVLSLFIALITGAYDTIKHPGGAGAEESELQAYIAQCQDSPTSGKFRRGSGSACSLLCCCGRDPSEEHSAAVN

Row | Structure (SMILES) | EC50 (human TRPML1) | EC50 (TRPML2) | EC50 (TRPML3)
1 | C[C@H]1CN(C(=O)[C@H](F)C(C)(C)C)CCN1c1ncnc2c1c(C1CC1)cn2-c1cc(C#N)ccn1 (single isomer, unassigned) [Compound 202] | < 100 nM | < 100 nM | < 100 nM
2 | C[C@H]1CN(C(=O)[C@@H](F)C(C)(C)C)CCN1c1ncnc2c1c(C1CC1)cn2-c1cc(C#N)ccn1 (single isomer, unassigned) [Compound 203] | < 100 nM | < 100 nM | < 100 nM
3 | [2H]C([2H])([2H])C([2H])(C(=O)N1C[C@H](C)N(c2ncnc3c2c(-c2ccccc2F)cn3-c2cc(C#N)ccn2)C[C@H]1C)C([2H])([2H])[2H] (single isomer, unassigned) [Compound 233] |  | < 100 nM | < 100 nM
4 | [2H]C([2H])([2H])C(C(=O)N1C[C@H](C)N(c2ncnc3c2c(-c2ccccc2F)cn3-c2cc(C#N)ccn2)C[C@H]1C)C([2H])([2H])[2H] (single isomer, unassigned) [Compound 234] |  | 100 to 500 nM | < 100 nM
5 | [2H]C([2H])([2H])[C@@H]1CN(c2ncnc3c2c(-c2ccccc2F)cn3-c2cc(C#N)ccn2)[C@@H](C)CN1C(=O)C(C)C (single isomer, unassigned) [Compound 281] |  | 500 to 2000 nM | 100 to 500 nM
6 | C[C@H]1CN(C(=O)C(C)(C)C)CCN1c1nccc2c1c(C1CC1)cn2-c1cccc(F)c1 [Compound 228, (S)-1-(4-(3-cyclopropyl-1-(3-fluorophenyl)-1H-pyrrolo[3,2-c]pyridin-4-yl)-3-methylpiperazin-1-yl)-2,2-dimethylpropan-1-one] | < 100 nM |  | < 100 nM
7 | C[C@@H]1CN(c2ncnc3c2c(C2CCC2)cn3-c2cc(C#N)ccn2)[C@@H](C)CN1C(=O)C1(F)CC1 [Compound 236, 2-(5-cyclobutyl-4-((2S,5R)-4-(1-fluorocyclopropane-1-carbonyl)-2,5-dimethylpiperazin-1-yl)-7H-pyrrolo[2,3-d]pyrimidin-7-yl)isonicotinonitrile] | < 100 nM |  | < 100 nM
8 | COC(C)(C)C(=O)N1CCN(c2ncnc3c2c(C2CC2)cn3-c2cc(C#N)ccn2)[C@@H](C)C1 [Compound 241, (S)-2-(5-cyclopropyl-4-(4-(2-methoxy-2-methylpropanoyl)-2-methylpiperazin-1-yl)-7H-pyrrolo[2,3-d]pyrimidin-7-yl)isonicotinonitrile] | < 100 nM |  | < 100 nM
9 | COC1(C(=O)N2CCN(c3ncnc4c3c(-c3ccccc3F)cn4-c3cc(C#N)ccn3)[C@@H](C)C2)CC1 [Compound 243, (S)-2-(5-(2-fluorophenyl)-4-(4-(1-methoxycyclopropane-1-carbonyl)-2-methylpiperazin-1-yl)-7H-pyrrolo[2,3-d]pyrimidin-7-yl)isonicotinonitrile] | < 100 nM |  | 100 to 500 nM
10 | Cc1cn(-c2cc(F)ccn2)c2ncnc(N3C[C@@H](C)N(C(=O)C(C)(C)C)C[C@@H]3C)c12 [Compound 244, 1-((2R,5S)-4-(7-(4-fluoropyridin-2-yl)-5-methyl-7H-pyrrolo[2,3-d]pyrimidin-4-yl)-2,5-dimethylpiperazin-1-yl)-2,2-dimethylpropan-1-one] | < 100 nM |  | 500 to 2000 nM
11 | Cc1cn(-c2cc(C(F)(F)F)ccn2)c2ncnc(N3C[C@@H](C)N(C(=O)C(C)(C)C)C[C@@H]3C)c12 [Compound 245, 1-((2R,5S)-2,5-dimethyl-4-(5-methyl-7-(4-(trifluoromethyl)pyridin-2-yl)-7H-pyrrolo[2,3-d]pyrimidin-4-yl)piperazin-1-yl)-2,2-dimethylpropan-1-one] | < 100 nM |  | 100 to 500 nM
12 | CC(C)C(=O)N1C[C@H](C)N(c2ncnc3c2c(C2CCC2)cn3-c2cccc(F)c2)C[C@H]1C [Compound 248, 1-((2R,5S)-4-(5-cyclobutyl-7-(3-fluorophenyl)-7H-pyrrolo[2,3-d]pyrimidin-4-yl)-2,5-dimethylpiperazin-1-yl)-2-methylpropan-1-one] | > 2000 nM |  | > 2000 nM
13 | C[C@@H]1CN(c2ncnc3c2c(C2CCC2)cn3-c2cccc(F)c2)[C@@H](C)CN1C(=O)C1(F)CC1 [Compound 249, ((2R,5S)-4-(5-cyclobutyl-7-(3-fluorophenyl)-7H-pyrrolo[2,3-d]pyrimidin-4-yl)-2,5-dimethylpiperazin-1-yl)(1-fluorocyclopropyl)methanone] | 100 to 500 nM |  | 500 to 2000 nM
14 | C[C@@H]1CN(c2ncnc3c2c(C2CCC2)cn3-c2cccc(Cl)c2)[C@@H](C)CN1C(=O)C1(F)CC1 [Compound 254, ((2R,5S)-4-(7-(3-chlorophenyl)-5-cyclobutyl-7H-pyrrolo[2,3-d]pyrimidin-4-yl)-2,5-dimethylpiperazin-1-yl)(1-fluorocyclopropyl)methanone] | 500 to 2000 nM |  | 500 to 2000 nM
15 | CC(C)C(=O)N1CCN(c2ncnc3c2c(N2CCC2)cn3-c2cc(C#N)ccn2)C[C@H]1C [Compound 273, (R)-2-(5-(azetidin-1-yl)-4-(4-isobutyryl-3-methylpiperazin-1-yl)-7H-pyrrolo[2,3-d]pyrimidin-7-yl)isonicotinonitrile] | < 100 nM |  | < 100 nM
16 | CCCC(=O)N1CCN(c2ncnc3c2c(N2CCC2)cn3-c2cc(C#N)ccn2)C[C@H]1C [Compound 274, (R)-2-(5-(azetidin-1-yl)-4-(4-butyryl-3-methylpiperazin-1-yl)-7H-pyrrolo[2,3-d]pyrimidin-7-yl)isonicotinonitrile] | < 100 nM |  | < 100 nM
17 | CC(C)C(=O)N1C[C@H](C)N(c2ncnc3c2c(N2CCC2)cn3-c2cc(C#N)ccn2)C[C@H]1C [Compound 275, 2-(5-(azetidin-1-yl)-4-((2S,5R)-4-isobutyryl-2,5-dimethylpiperazin-1-yl)-7H-pyrrolo[2,3-d]pyrimidin-7-yl)isonicotinonitrile] | < 100 nM |  | 100 to 500 nM
